{"source": "patent US20240358705A1", "about": "“COMPOSITIONS AND METHODS FOR TREATMENT OF CANCER” (Board of Supervisors of Louisiana State University and …, priority 2021, published 2024)", "key": {"CD8 T cells [1]": {"system": "CD8 T cells", "experiment": "CD8 T cell differentiation by flow cytometry", "type": "cell-based, mouse", "conditions": "72 hours", "procedure": "Lymph nodes and spleen were isolated from wild-type C57BL/6N mice. Tissue was mechanically dissociated with the back of a syringe plunger and passed through a […] filter. […] Treated cells were incubated at 37° C., 5% CO2 for the designed study duration. […] After staining, cells were pelleted, resuspended and run by a BD FACSymphony A3 flow cytometer."}, "CD8 T cells [2]": {"system": "CD8 T cells", "experiment": "XFe ATP rate assay, CD8 T cells", "type": "cell-based, mouse", "conditions": "10 μM, 72 hours", "procedure": "(§1) Lymph nodes and spleen were isolated from wild-type C57BL/6N mice. Tissue was mechanically dissociated with the back of a syringe plunger and passed through a 70 M filter. […] Treated cells were incubated at 37° C., 5% CO2 for the designed study duration.\nTreated CD8 T cell were prepared following the in vitro T cell activation method and incubated for 72 hours at 37° C., 5% CO2. Treated BM-MDSCs were prepared followed the in vitro BM-MDSCs differentiation method. The XFe ATP rate assay preparation and analysis was conducted following the manufacturer's user guide and instructions. […] Treated cells were removed from culture, pelleted and resuspended in warm assay medium at a concentration of 3×10^6 cells/ml (1.5×10^5 cells/well) for CD8 T cells and 2.6×10^6 cells/ml (1.3×10^5 cells/well) for BM-MDSCs. Cells were adhered to the culture plate by centrifugation 200×G, for one minute with zero brake per the manufacturer's instructions for immobilization of non-adherent cells (Agilent, Santa Clara, CA). […] Results were procured using the Seahorse XF real-time ATP rate assay report generator."}, "[3]": {"system": "adoptively transferred CD8 OT-I T cells", "experiment": "Immune profiling and proliferation of in vivo vaccinated CD8 T cells", "set-up": "species or system mouse", "conditions": "for OT-I CD8 T cell proliferation, lymph node: vehicle MC 49.37%; for effector/memory CD8 OT-I T cells, splenic compartment: vehicle MC 12.53%; for adoptively transferred cells expressing PD-1, lymph node: vehicle MC 12.58%; for effector/memory CD8 OT-I T cells, lymph node: vehicle MC 23.11%; for OT-I CD8 T cell proliferation, splenic compartment: vehicle MC 30.68%; for naïve CD8 OT-I T cells, splenic compartment: vehicle MC 46.68%; for naïve CD8 OT-I T cells, lymph node: vehicle MC […]", "procedure": "Five hours later, mice were vaccinated by subcutaneous injection with […] (SEQ ID NO: 1) in IFA. 16 hours after vaccination, mice were administered 30 mg/kg or 90 mg/kg GLPG1205 suspended in 0.5% methylcellulose (Sigma #M0430100G) with 0.5% Tween-80 (Sigma #P4780100ML) (MC) orally once daily for three days. 96 hours post-vaccination, lymph node and spleen tissue were isolated for analysis. Single-cell suspensions were treated with ACK lysis to remove red blood cells, and then stained following the immune profiling by flow cytometry method. Treatment effectiveness was determined by the percent proliferation and PD-1 expression of adoptively transferred cells."}, "[4]": {"system": "cytochrome family of enzymes", "conditions": "cited from earlier work"}, "B16-OVA": {"system": "B16-OVA", "experiment": "In vivo adoptive cellular transfer, OT-I, B16-OVA tumor", "set-up": "species or system mouse", "procedure": "C57BL/6N mice were injected with 3×10^5 B16-OVA or B16 subcutaneously in the right flank. Five days after injection, mice were administered 200 μg cyclophosphamide monohydrate (Sigma #C73971G) dissolved in PBS by intraperitoneal injection to induce minor lymphodepletion. 48 hours after lymphodepletion, mice were intravenously adoptively transferred 2.5×10^6 CD8 OT-I or CD8 […] pre-treated ex vivo following the in vitro T cell activation method. Tumor growth rates were determined by tumor volume measurement beginning on day four and continuing three times per week for the study duration. Tumor volumes were determined by the ellipsoid formula: [(Length×Width^2)/2]. At the end of study, tumors were either fixed in 10% formalin or dissociated into a single-cell suspension for flow cytometry. […] Cells were then counted, filtered through a 70 μm cell strainer, and 10×10^6 cells were aliquoted and stained following the immune profiling by flow cytometry method."}, "CD3 T cells": {"system": "CD3 T cells", "conditions": "activated CD3 T cells, 3 μM or 10 μM, 72 hours", "procedure": "as §1\nProtein concentration was quantified using a BCA protein assay kit (Thermo #A53225). […] of protein diluted with 1×LDS sample buffer (Life Technologies #B0008) and 1×sample reducing agent (Life Technologies #B0009), were denatured at 95° C. for 5 minutes. Denatured T cell protein was resolved using a 10% Bolt Bis-Tris plus protein gel (Thermo #NW00102BOX) and denatured BM-MDSC protein was resolved using an 8% Bolt Bis-Tris plus protein gel (Thermo #NW00082BOX). Gels were transferred to a PVDF membrane (Invitrogen #IB401002) using a seven-minute P3 program on an Invitrogen iBlot dry transfer system. Membranes were then blocked for one hour using 5% nonfat dry milk in TBS-T, washed three times with TBS-T and probed with primary antibody diluted with 5% BSA in TBS-T overnight at 4° C. with gentle rocking. Primary antibody was removed, and membranes were washed three times with TBS-T followed by secondary antibody diluted in TBS-T at room temperature for one hour with gentle rocking. […] Secondary antibodies used were anti-mouse-HRP (Kindle Biosciences #R1005) and anti-rabbit-HRP (Kindle Biosciences #R1006). […]"}, "[5]": {"conditions": "three separate models of NASH; cited from earlier work"}, "CD8 T cells [6]": {"system": "CD8 T cells", "experiment": "2-NBDG glucose analog uptake assay", "type": "cell-based, mouse", "conditions": "72 hours", "procedure": "as §1\nTreated CD3 T cells were prepared following the in vitro T cell activation method and incubated for 72 hours at 37° C., 5% CO2. […] (Thermo #N13195) Cells were then incubated for one hour at 37° C., 5% CO2. After incubation, T cells were washed, pelleted and stained with anti-CD4, anti-CD8, anti-CD3 following the immune profiling by flow cytometry method. Percent uptake was calculated using mean fluorescent intensity (MFI)."}, "CD8 T cells [7]": {"system": "CD8 T cells", "experiment": "Quantitative PCR of glycolysis enzymes", "type": "cell-based, mouse", "conditions": "3 μM and 10 μM, 48 hours", "procedure": "as §1"}}}
{"smiles": "O=c1nc(OC[C@@H]2COCCO2)cc2n1CCc1cc(C#CC3CC3)ccc1-2", "note": "[GLPG1205, 9-Cyclopropylethynyl-2-((S)-1-[1,4]dioxan-2-ylmethoxy)-6,7-dihydropyrimido[6,1-a]isoquinolin-4-one]", "values": [{"measurement": "effector/memory CD8 compartment (CD62L−, CD44+), average increase compared to DMSO control", "setting": "CD8 T cells [1]; 3 μM", "result": 23.57, "unit": "%"}, {"measurement": "naïve CD8 T cell compartment (CD62L+, CD44−), average reduction compared to DMSO control", "setting": "CD8 T cells [1]; 3 μM", "result": 32.54, "unit": "%"}, {"measurement": "effector/memory CD8 compartment (CD62L−, CD44+), average increase compared to DMSO control", "setting": "CD8 T cells [1]; 10 μM", "result": 37.93, "unit": "%"}, {"measurement": "naïve CD8 T cell compartment (CD62L+, CD44−), average reduction compared to DMSO control", "setting": "CD8 T cells [1]; 10 μM", "result": 74.69, "unit": "%"}, {"measurement": "percent of ATP generated by OXPHOS", "setting": "CD8 T cells [2]; DMSO 49%", "result": 39.7, "unit": "%"}, {"measurement": "percent of ATP generated by glycolysis", "setting": "CD8 T cells [2]; DMSO 51%", "result": 60.3, "unit": "%"}, {"measurement": "ATP production rate through mitochondrial OXPHOS (mitoATP)", "setting": "CD8 T cells [2]; DMSO 392.74", "result": 486.75, "unit": "pmol/min"}, {"measurement": "ATP production rate through glycolysis (glycoATP)", "setting": "CD8 T cells [2]; DMSO 409.61", "result": 737.62, "unit": "pmol/min"}, {"measurement": "total ATP production rate", "setting": "CD8 T cells [2]; DMSO control 816.19", "result": 1224.27, "unit": "pmol/min"}, {"measurement": "OCR, ECAR and PER", "setting": "CD8 T cells [2]; vs DMSO", "result": "raises the overall OCR, ECAR, and PER"}, {"measurement": "PD-1 expression, splenic compartment, compared to MC vehicle", "setting": "[3]; 30 mg/kg or 90 mg/kg", "result": "no significant increase"}, {"measurement": "OT-I CD8 T cell proliferation, lymph node", "setting": "[3]; 30 mg/kg orally once daily for 3 days", "result": 73.84, "unit": "%"}, {"measurement": "effector/memory CD8 OT-I T cells, splenic compartment", "setting": "[3]; 30 mg/kg", "result": 30.12, "unit": "%"}, {"measurement": "adoptively transferred cells expressing PD-1, lymph node", "setting": "[3]; 30 mg/kg", "result": 16.05, "unit": "%"}, {"measurement": "effector/memory CD8 OT-I T cells, lymph node", "setting": "[3]; 30 mg/kg", "result": 47.38, "unit": "%"}, {"measurement": "OT-I CD8 T cell proliferation, splenic compartment", "setting": "[3]; 30 mg/kg", "result": 50.99, "unit": "%"}, {"measurement": "naïve CD8 OT-I T cells, splenic compartment", "setting": "[3]; 30 mg/kg", "result": 26.16, "unit": "%"}, {"measurement": "naïve CD8 OT-I T cells, lymph node", "setting": "[3]; 30 mg/kg", "result": 12.87, "unit": "%"}, {"measurement": "OT-I CD8 T cell proliferation, lymph node", "setting": "[3]; 90 mg/kg orally once daily for 3 days", "result": 74.56, "unit": "%"}, {"measurement": "adoptively transferred cells expressing PD-1, lymph node", "setting": "[3]; 90 mg/kg, non-significant increase", "result": 15.75, "unit": "%"}, {"measurement": "effector/memory CD8 OT-I T cells, splenic compartment", "setting": "[3]; 90 mg/kg", "result": 37.72, "unit": "%"}, {"measurement": "effector/memory CD8 OT-I T cells, lymph node", "setting": "[3]; 90 mg/kg", "result": 53.97, "unit": "%"}, {"measurement": "OT-I CD8 T cell proliferation, splenic compartment", "setting": "[3]; 90 mg/kg", "result": 59.35, "unit": "%"}, {"measurement": "naïve CD8 OT-I T cells, splenic compartment", "setting": "[3]; 90 mg/kg", "result": 16.37, "unit": "%"}, {"measurement": "naïve CD8 OT-I T cells, lymph node", "setting": "[3]; 90 mg/kg", "result": 9.48, "unit": "%"}, {"measurement": "interaction with the cytochrome family of enzymes", "setting": "[4]", "result": "strong safety profiles"}, {"measurement": "anti-tumor response (tumor volume) after adoptive transfer of pre-treated CD8 OT-I T cells", "setting": "B16-OVA; T cells pre-treated ex vivo with 10 μM, B16-OVA tumor bearing mice, vs sham and DMSO pre-treated", "result": "significantly enhanced this anti-tumor effect"}, {"measurement": "intratumoral CD8 T cells positive for SIINFEKL tetramer", "setting": "B16-OVA; T cells pre-treated with 10 μM, sham 20%, DMSO pre-treated 27.6%", "result": 53.7, "unit": "%"}, {"measurement": "GPR84 expression", "setting": "CD3 T cells", "result": "did not significantly affect GPR84 expression"}, {"measurement": "macrophage accumulation", "setting": "[5]", "result": "significant decrease in macrophage accumulation"}, {"measurement": "2-NBDG uptake (MFI), Log2 fold change compared to DMSO control", "setting": "CD8 T cells [6]; 3 μM", "result": 0.19, "unit": "Log2 fold change"}, {"measurement": "2-NBDG uptake, increase vs DMSO", "setting": "CD8 T cells [6]; 3 μM", "result": 13.92, "unit": "%"}, {"measurement": "2-NBDG uptake (MFI), Log2 fold change compared to DMSO control", "setting": "CD8 T cells [6]; 10 μM", "result": 0.24, "unit": "Log2 fold change"}, {"measurement": "2-NBDG uptake, increase vs DMSO", "setting": "CD8 T cells [6]; 10 μM", "result": 17.74, "unit": "%"}, {"measurement": "gene expression of enzymes in glycolytic pathway compared to DMSO control", "setting": "CD8 T cells [7]", "result": "significant dose-dependent increase"}]}
